We go through six compounds from patent US7169805B2 (Nicox S.A., priority 2003, dated 2007).

Series [1] concerns isolated rabbit thoracic aorta preparations. Kind of series: Vasorelaxing activity in isolated rabbit thoracic aorta rings precontracted with noradrenaline. Format: cell-based. The conditions noted are these: for Emax / IC50: Oryctolagus cuniculus, NA (1 μM) precontracted rings with functional endothelium; for Emax: at 100 μM of tested compound, read-out: Emax (maximum efficacy); for IC50: read-out: IC50 (concentration producing 50% of the maximum relaxation). As for the experimental part: Male New Zealand rabbits were anaesthetized with thiopental-Na (50 mg/kg, iv), sacrificed by exsanguinations and then the thorax was opened and the aorta dissected. Single ring preparations (4 mm in length) of thoracic aorta were set up in physiological salt solution (PSS) at 37° C. in small organ chambers (5 ml). The composition of PSS was (mM): NaCl 130, NaHCO3 14.9, KH2PO4 1.2, MgSO4 1.2, HEPES 10, […] (95% O2/5% CO2; pH 7.4). Each ring was mounted under 2 g passive tension. Isometric tension was recorded with a Grass transducer (Grass FT03) attached to a BIOPAC MP150 System. Preparations were allowed to equilibrate for 1 h, then contracted submaximally with noradrenaline (NA, 1 μM) and, when the contraction was stable, acetylcholine (ACh, 10 μM) was added. A relaxant response to ACh indicated the presence of a functional endothelium. […] When a stable precontraction was reached, a cumulative concentration-response curve for each of the tested compounds was obtained in the presence of a functional endothelium. Time intervals between different concentrations were based on the time needed to reach a full response. Each arterial ring was exposed to only one combination of inhibitor and the tested compounds. Moreover, the effect of the soluble guanylyl cyclase inhibitor ODQ (1-H-(1,2,4)-oxadiazol (4,3-a)quinoxalin-1-one) on the dilator responses elicited by the compounds was examined preincubating the aortic rings with ODQ (10 μM) for 20 min.
Results are expressed as IC50 value, which is the concentration of the tested compound producing 50% of the maximum relaxation, and as Emax value which is the maximum efficacy at a concentration of 100 μM of the tested compound.
During the experimental period, the plateau obtained with NA was stable without significant spontaneous loss of contraction in the aortic rings.
Furthermore, in experiments performed in presence of ODQ (10 μM), the vasorelaxant responses to all the tested compounds were inhibited.

Series [2] concerns SHR rats. Kind of series: Antihypertensive activity in a genetic model of hypertension (SHR rats), arterial pressure. Format: in vivo, rat. The conditions noted are these: single oral dose 30 mg/Kg; for Arterial pressure (MAP): 4 hours after treatment; for Reduction of blood pressure vs the control: 4 hrs after treatment. The procedure: (§1) SHR rats were treated orally in a single dose of 30 mg/Kg. After 2 hours the animal were anaesthetized with tiopental-Na; a fluid catheter was inserted in a right carotid artery and connected to a transducer for the homodynamic measurements. 4 hours after the treatment the arterial pressure (MAP, mmHg) was measured.

For series [3] the following is noted: given orally; cited from earlier work.
For series [4], the target named is T1, ACE (Rattus norvegicus, UniProt P47820).
T1 construct: from tissue; host or cells: heparinized plasma of orally treated SHR rats
T1 sequence (P47820 36-1238 limits assumed): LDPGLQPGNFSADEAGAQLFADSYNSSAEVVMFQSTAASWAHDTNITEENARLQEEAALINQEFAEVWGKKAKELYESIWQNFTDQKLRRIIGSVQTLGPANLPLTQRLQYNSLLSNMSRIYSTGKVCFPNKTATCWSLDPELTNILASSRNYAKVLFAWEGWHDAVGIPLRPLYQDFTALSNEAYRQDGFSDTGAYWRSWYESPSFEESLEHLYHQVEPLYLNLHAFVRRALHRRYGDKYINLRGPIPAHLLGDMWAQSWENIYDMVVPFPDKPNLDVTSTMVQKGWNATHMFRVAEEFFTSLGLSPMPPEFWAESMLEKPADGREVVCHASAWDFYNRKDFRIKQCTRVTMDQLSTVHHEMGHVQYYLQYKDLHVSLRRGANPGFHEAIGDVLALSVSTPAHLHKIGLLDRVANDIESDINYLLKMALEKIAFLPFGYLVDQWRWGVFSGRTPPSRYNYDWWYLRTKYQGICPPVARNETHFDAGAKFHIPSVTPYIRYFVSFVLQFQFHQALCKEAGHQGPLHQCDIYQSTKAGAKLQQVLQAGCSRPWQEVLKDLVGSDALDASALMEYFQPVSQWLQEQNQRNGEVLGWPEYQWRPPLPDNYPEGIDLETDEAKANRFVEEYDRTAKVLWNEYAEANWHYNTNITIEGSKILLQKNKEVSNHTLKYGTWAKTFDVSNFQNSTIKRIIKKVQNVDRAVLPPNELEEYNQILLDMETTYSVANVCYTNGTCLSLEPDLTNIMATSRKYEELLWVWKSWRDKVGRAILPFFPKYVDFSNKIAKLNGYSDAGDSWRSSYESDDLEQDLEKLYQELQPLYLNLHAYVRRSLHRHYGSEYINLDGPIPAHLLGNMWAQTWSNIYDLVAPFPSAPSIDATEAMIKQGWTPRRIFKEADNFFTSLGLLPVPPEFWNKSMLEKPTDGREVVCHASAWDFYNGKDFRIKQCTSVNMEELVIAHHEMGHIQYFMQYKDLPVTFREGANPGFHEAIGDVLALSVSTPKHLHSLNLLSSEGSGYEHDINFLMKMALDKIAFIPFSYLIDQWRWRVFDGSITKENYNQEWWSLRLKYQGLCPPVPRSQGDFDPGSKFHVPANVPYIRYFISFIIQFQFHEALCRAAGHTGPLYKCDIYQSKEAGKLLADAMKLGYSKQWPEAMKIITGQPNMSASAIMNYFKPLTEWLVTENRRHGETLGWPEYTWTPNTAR
Kind of series: Plasma ACE activity of treated SHR rats, spectrophotometric FAPGG hydrolysis. Format: in vivo. The conditions noted are these: heparinized plasma of SHR rats after single oral dose 30 mg/Kg, collected at end of experiment. As for the experimental part: as §1
At the end of the experiments the blood was collected from the right carotid. The heparinized blood samples were centrifuged at 1000 g for 20 min at 4° C. The plasma was stored at −20° C. until the ACE activity measurements.
The ACE activity was determined by a spectrophotometric method (Sigma) based on the enzymatic reaction catalysed by ACE, where the FAPGG was hydrolysed to FAP.
FAPGG hydrolysis produced a decrease in the absorbance at 340 nm, a marker of ACE activity in the sample. Results, reported in table 3, were expressed as U/L in heparinized plasma.

With `C[C@H](CS)C(=O)N1CCC[C@H]1C(=O)O` [Captopril, 1-[(2S)-3-mercapto-2-methylpropionyl]-L-proline, reference compound], the Emax in series [1] came out at 0%. For the same compound, the “Relaxation of aortic rings (in words)” value in series [1] (any of the concentrations tested, curve not different from vehicle alone) is on record as “did not produce relaxation”. In addition, the “Arterial pressure (MAP)” value in series [2] came to 145 mmHg. In series [3], the Bioavailability result is reported as “about 75%” and the “Elimination route (in words)” value is given as “most of the drug is eliminated in urine”.

`CC(=O)SC[C@@H](C)C(=O)N1CCC[C@H]1C(=O)N[C@H](Cc1ccccc1)C(=O)Oc1cccc(CO[N+](=O)[O-])c1` [Ex. 9, 1-[(2S)-3-(Acetylthio)-2-methyl-1-oxopropyl]-L-prolyl-L-phenylalanine 3-nitrooxymethyl phenyl ester]: in series [1], the IC50 was 3.2 ± 0.65 µM and the Emax is 96.8 ± 0.65%.

Regarding `C[C@H](CSC(=O)OCO[N+](=O)[O-])C(=O)N1CCC[C@H]1C(=O)O` [Ex. 3, 1-[(2S)-3-(Nitrooxymethoxycarbonyl)mercapto-2-methyl-1-oxopropyl]-L-proline], in series [1], the IC50 is 6.7 ± 0.84 µM and the Emax amounted to 97.9 ± 1.51%.

`CC(=O)SC[C@@H](C)C(=O)N1CCC[C@H]1C(=O)OCCCO[N+](=O)[O-]` [Ex. 8, 1-[3-(Acetylthio)-(2S)-methyl-1-oxopropyl]-L-proline 3-nitrooxypropyl ester]: in series [1], the IC50 stood at 26.1 ± 3.91 µM and the Emax came to 77.9 ± 3.21%. Further, in series [2], the “Arterial pressure (MAP)” value came to 132 mmHg and the “Reduction of blood pressure vs the control” value was found to be 35%. Besides, the ACE activity in series [4] was 59 U/L.

Regarding `C[C@H](CSC(=O)OCCCCO[N+](=O)[O-])C(=O)N1CCC[C@H]1C(=O)O` [Ex. 2, 1-[(2S)-3-(4-Nitrooxybutoxycarbonyl)mercapto-2-methyl-1-oxopropyl]-L-proline], in series [1], the IC50 is 6 ± 0.87 µM and the Emax is 96.9 ± 1.87%.

Regarding `CC(=O)SC[C@@H](C)C(=O)N1CCC[C@H]1C(=O)Oc1cccc(CO[N+](=O)[O-])c1` [Ex. 8b, 1-[3-(acetylthio)-(2S)-methyl-1-oxopropyl]-L-proline 3-nitrooxymethylphenyl ester], in series [1], the IC50 is 4.01 ± 1.18 µM and the Emax amounted to 92.4 ± 4.15%. In series [2], the “Arterial pressure (MAP)” value is listed as 116 mmHg and the “Reduction of blood pressure vs the control” value is 43%. The ACE activity in series [4] came to 53 U/L.
